From patent publication US8530461B2 (Boehringer Ingelheim International GmbH, priority 2011, dated 2013) come the findings set out here.

SMILES strings stand for the structures.

T1 sequence (O00763 129-2458 limits assumed): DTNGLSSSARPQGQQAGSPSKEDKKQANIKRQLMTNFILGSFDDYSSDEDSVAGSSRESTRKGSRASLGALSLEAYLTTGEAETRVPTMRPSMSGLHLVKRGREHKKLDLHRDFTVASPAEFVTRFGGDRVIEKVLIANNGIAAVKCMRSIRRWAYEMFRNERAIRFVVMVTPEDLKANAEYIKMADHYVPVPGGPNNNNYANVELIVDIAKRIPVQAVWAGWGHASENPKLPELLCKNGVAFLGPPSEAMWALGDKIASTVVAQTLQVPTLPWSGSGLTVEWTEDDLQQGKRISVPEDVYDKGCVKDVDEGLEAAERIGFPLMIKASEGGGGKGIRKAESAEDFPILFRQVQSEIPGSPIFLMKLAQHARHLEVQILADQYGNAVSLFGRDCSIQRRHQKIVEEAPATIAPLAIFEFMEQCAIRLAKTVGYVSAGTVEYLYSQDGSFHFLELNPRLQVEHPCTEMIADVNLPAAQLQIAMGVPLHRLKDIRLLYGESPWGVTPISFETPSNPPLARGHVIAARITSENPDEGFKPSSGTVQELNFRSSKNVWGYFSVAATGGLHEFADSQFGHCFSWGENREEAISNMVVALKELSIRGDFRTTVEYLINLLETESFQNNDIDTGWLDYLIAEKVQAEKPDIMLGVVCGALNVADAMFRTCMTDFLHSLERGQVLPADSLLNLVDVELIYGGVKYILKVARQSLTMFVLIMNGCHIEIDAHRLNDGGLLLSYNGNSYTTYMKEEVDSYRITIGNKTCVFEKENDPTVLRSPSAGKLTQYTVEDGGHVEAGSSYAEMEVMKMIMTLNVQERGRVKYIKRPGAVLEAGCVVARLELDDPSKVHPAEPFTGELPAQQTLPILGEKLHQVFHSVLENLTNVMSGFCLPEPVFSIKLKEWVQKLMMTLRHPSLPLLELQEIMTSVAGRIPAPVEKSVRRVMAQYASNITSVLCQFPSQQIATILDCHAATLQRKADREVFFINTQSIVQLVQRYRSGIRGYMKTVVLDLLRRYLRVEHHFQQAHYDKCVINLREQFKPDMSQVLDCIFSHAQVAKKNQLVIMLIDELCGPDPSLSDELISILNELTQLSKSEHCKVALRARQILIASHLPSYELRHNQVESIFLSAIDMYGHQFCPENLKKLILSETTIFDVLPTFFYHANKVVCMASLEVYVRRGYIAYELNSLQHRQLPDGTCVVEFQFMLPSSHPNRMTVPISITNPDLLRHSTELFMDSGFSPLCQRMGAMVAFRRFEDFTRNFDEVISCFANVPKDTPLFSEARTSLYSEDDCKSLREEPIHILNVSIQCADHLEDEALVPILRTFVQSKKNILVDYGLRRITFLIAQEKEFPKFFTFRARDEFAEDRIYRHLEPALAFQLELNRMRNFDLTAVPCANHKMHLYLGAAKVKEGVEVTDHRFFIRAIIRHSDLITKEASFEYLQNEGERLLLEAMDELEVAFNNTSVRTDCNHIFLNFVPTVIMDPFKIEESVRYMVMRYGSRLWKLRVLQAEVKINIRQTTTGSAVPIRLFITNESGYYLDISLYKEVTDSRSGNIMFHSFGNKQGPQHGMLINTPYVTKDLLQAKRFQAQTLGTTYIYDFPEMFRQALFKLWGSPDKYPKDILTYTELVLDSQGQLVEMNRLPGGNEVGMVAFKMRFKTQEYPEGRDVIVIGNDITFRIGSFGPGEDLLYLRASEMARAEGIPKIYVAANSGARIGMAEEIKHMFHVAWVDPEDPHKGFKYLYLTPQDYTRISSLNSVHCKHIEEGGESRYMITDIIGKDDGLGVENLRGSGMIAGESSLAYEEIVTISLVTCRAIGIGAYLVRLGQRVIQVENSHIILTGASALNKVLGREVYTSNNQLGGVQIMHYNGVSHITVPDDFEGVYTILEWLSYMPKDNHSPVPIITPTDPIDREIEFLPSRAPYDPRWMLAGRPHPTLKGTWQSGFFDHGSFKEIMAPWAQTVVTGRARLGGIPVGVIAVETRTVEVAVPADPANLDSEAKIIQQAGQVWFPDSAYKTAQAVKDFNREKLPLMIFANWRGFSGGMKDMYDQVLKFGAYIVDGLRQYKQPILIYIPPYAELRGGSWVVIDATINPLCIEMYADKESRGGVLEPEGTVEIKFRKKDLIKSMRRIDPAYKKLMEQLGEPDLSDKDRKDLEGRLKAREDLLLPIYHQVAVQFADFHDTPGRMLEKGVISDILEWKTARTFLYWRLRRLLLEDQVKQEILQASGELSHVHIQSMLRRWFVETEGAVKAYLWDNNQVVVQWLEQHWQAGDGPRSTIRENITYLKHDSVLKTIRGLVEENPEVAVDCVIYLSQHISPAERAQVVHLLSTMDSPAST

The assay concerns the target T1, human ACC2 (Homo sapiens, UniProt O00763).
T1 construct: made in house; host or cells: insect cells (baculoviral expression system)
Put plainly: ACC2 assay, spectrophotometric 384 well assay (NADH-linked, coupled lactate dehydrogenase/pyruvate kinase). Format: biochemical. To be noted: ACC2 assay; human ACC2 construct lacking 128 N-terminal amino acids; 25° C., 340 nm, 15 minutes; read-out: IC50. On the procedure:
Spectrophotometric 384 Well Assay
Malonyl CoA formation by acetyl CoA carboxylases is stoichometrically linked to the consumption of ATP. ACC2 activity is measured in a NADH-linked kinetic method measuring ADP generated during the ACC reaction using a coupled lactate dehydrogenase/pyruvate kinase reaction.
For biological testing, a human ACC2 construct which lacks the 128 amino acids at the N-terminus for increased solubility (nt 385-6966 in Genbank entry AJ575592) is cloned. The protein is then expressed in insect cells using a baculoviral expression system. Protein purification is performed by anion exchange.
All compounds are dissolved in dimethyl sulfoxide (DMSO) to a concentration of 10 mM.
Assay reactions are then carried out in 384-well plates, with hACC2 in an appropriate dilution and at final assay concentrations (f.c.) of 100 mM Tris (pH 7.5), 10 mM trisodium citrate, 25 mM KHCO3, 10 mM MgCl2, 0.5 mg/ml BSA, 3.75 mM reduced L-glutathione, 15 U/ml lactate dehydrogenase, 0.5 mM phosphoenolpyruvate, 15 U/ml pyruvate kinase, compounds at different concentrations at final DMSO concentrations of 1%.
The enzymatic reaction is then started by addition of a mixture of NADH, acetyl Coenzyme A (both […].) and ATP (500 uM f.c.). The decrease of the optical density (slope S) is then determined at 25° C. at a wavelength of 340 nm over 15 minutes in a spectrophotometric reader.
Each assay microtiter plate contains wells with vehicle instead of compound as controls for the non-inhibited enzyme (100% CTL; ‘HIGH’) and wells without acetyl-CoA as controls for non-specific NADH degradation (0% CTL; ‘LOW’).
The slope S is used for calculation of % CTL=(S(compound)−S(‘LOW’))/(S(‘HIGH’)−S(‘LOW’))100. Compounds will give values between 100% CTL (no inhibition) and 0% CTL (complete inhibition).
For IC50 value determination, the sample slope in the presence of the test compound after subtraction of the low controls (S(compound)−S(‘LOW’)) are used.
An IC50 value is derived from the compound slopes at different dosages after subtraction of the low controls (S(compound)−S(‘LOW’)) by non-linear regression curve fitting (equation y=(A+((B−A)/(1+((C/x)^D))))).
For the molecule `CCOCC(=O)N[C@@H](C)c1ccc(N2CC(Oc3ccc(OCC)cc3)C2)cc1` [Example 1.62], the IC50 turned out to be 2500 nM.

Take `C#CC(C)(C)C(=O)N[C@@H](C)c1ccc(N2CC(Oc3ccc(OCC)cc3)C2)cc1` [Example 1.63]: the IC50 worked out at 930 nM. For the molecule `CCOc1ccc(OC2CN(c3ccc([C@H](C)NC(=O)c4ccc(C)nc4)cc3)C2)cc1` [Example 1.64], the IC50 amounted to 2190 nM. The result for `CCCCC(=O)N[C@@H](C)c1ccc(N2CC(Oc3ccc(OCC)cc3)C2)cc1` [Example 1.65] reads 800 nM. As for `CCOc1ccc(OC2CN(c3ccc([C@H](C)NC(=O)c4sc(NC(C)=O)nc4-c4ccccc4)cc3)C2)cc1` [Example 1.66], the IC50 amounted to 550 nM. As for `CCOc1ccc(OC2CN(c3ccc([C@H](C)NC(=O)CCOC)cc3)C2)cc1` [Example 1.67], the IC50 worked out at 1290 nM.

Consider `CCOc1ccc(OC2CN(c3ccc([C@H](C)NC(=O)C(C)(C)C#N)cc3)C2)cc1` [Example 1.68], for which the IC50 is 1520 nM. Turning to `CCOc1ccc(OC2CN(c3ccc([C@H](C)NC(=O)c4ccc(C)c(NC(C)=O)c4)cc3)C2)cc1` [Example 1.69], the IC50 was 3150 nM.

`CCOc1ccc(OC2CN(c3ccc([C@H](C)NC(=O)C(C)CC)cc3)C2)cc1` (some centres unmarked) [Example 1.71]: the IC50 is 710 nM. Regarding `CCOc1ccc(OC2CN(c3ccc([C@H](C)NC(=O)c4coc(NC(C)=O)n4)cc3)C2)cc1` [Example 1.72], the IC50 was determined as 1190 nM. The result for `CCOc1ccc(OC2CN(c3ccc([C@H](C)NC(=O)C(F)F)cc3)C2)cc1` [Example 1.73] reads 160 nM; that for `CCOc1ccc(OC2CN(c3ccc([C@H](C)NC(=O)C4(C(F)(F)F)CC4)cc3)C2)cc1` [Example 1.74], 410 nM. As for `CCOc1ccc(OC2CN(c3ccc([C@H](C)NC(=O)CC(F)(F)F)cc3)C2)cc1` [Example 1.75], the IC50 worked out at 410 nM. In the case of `CCOc1ccc(OC2CN(c3ccc([C@H](C)NC(=O)c4sc(C)nc4C)cc3)C2)cc1` [Example 1.76], the IC50 is 1000 nM. The result for `C#CCCC(=O)N[C@@H](C)c1ccc(N2CC(Oc3ccc(OCC)cc3)C2)cc1` [Example 1.77] reads 1040 nM. As to `CCOc1ccc(OC2CN(c3ccc([C@H](C)NC(=O)c4cncc(NC(C)=O)c4)cc3)C2)cc1` [Example 1.78], the IC50 turned out to be 360 nM.

For the molecule `CCOc1ccc(OC2CN(c3ccc([C@H](C)NC(=O)C(C)O)cc3)C2)cc1` (some centres unmarked) [Example 1.79], the IC50 came out at 1720 nM. Turning to `CCOc1ccc(OC2CN(c3ccc([C@H](C)NC(=O)CCC#N)cc3)C2)cc1` [Example 1.80], the IC50 came out at 1060 nM. `CCOc1ccc(OC2CN(c3ccc([C@H](C)NC(=O)Cc4ccccn4)cc3)C2)cc1` [Example 1.81]: the IC50 is 2330 nM.

As for `CCOc1ccc(OC2CN(c3ccc([C@H](C)NC(=O)C(C)C#N)cc3)C2)cc1` (some centres unmarked) [Example 1.82], the IC50 stood at 270 nM. For the molecule `CCOc1ccc(OC2CN(c3ccc([C@H](C)NC(=O)CC#N)cc3)C2)cc1` [Example 1.83], the half-maximal inhibitory concentration (IC50) was 590 nM. On to `CCOc1ccc(OC2CN(c3ccc([C@H](C)NC(=O)c4cnon4)cc3)C2)cc1` [Example 1.84], for which the IC50 turned out to be 730 nM. As for `CCOc1ccc(OC2CN(c3ccc([C@H](C)NC(=O)c4cncs4)cc3)C2)cc1` [Example 1.85], the IC50 is 230 nM. Regarding `C[C@H](NC(=O)c1cn[nH]c1)c1ccc(N2CC(Oc3ccc(OCC4CC4)cc3)C2)cc1` [Example 1.86], the IC50 came to 50 nM.

Consider `C[C@H](NC(=O)CC#N)c1ccc(N2CC(Oc3ccc(OCC4CC4)cc3)C2)cc1` [Example 1.87], for which the IC50 is 200 nM. Regarding `CCC(=O)N[C@@H](C)c1ccc(N2CC(Oc3ccc(OCC4CC4)cc3)C2)cc1` [Example 1.88], the IC50 stood at 100 nM. On to `C[C@H](NC(=O)C1(C)CC1)c1ccc(N2CC(Oc3ccc(OCC4CC4)cc3)C2)cc1` [Example 1.89], for which the IC50 stood at 120 nM. Consider `C[C@H](NC(=O)c1cncs1)c1ccc(N2CC(Oc3ccc(OCC4CC4)cc3)C2)cc1` [Example 1.90], for which the IC50 turned out to be 90 nM. On to `CCOc1ccc(OC2CN(c3ccc([C@H](C)NC(=O)c4cc(C)oc4C)cc3)C2)cc1` [Example 2.1, (S)-2,5-Dimethyl-furan-3-carboxylic acid (1-{4-[3-(4-ethoxy-phenoxy)-azetidin-1-yl]-phenyl}-ethyl)-amide], for which the IC50 came out at 1530 nM.

For the molecule `CCOc1ccc(OC2CN(c3ccc([C@H](C)NC(=O)c4ccnn4C)cc3)C2)cc1` [Example 2.2], the IC50 was 790 nM.

As for `CCOc1ccc(OC2CN(c3ccc([C@H](C)NC(=O)c4ccoc4C)cc3)C2)cc1` [Example 2.3], the IC50 was 820 nM. In the case of `CCOc1ccc(OC2CN(c3ccc([C@H](C)NC(=O)c4ccno4)cc3)C2)cc1` [Example 2.4] it was 290 nM. `C[C@H](NC(=O)C1CC1)c1ccc(N2CC(Oc3ccc(OCC4CC4)cc3)C2)cc1` [Example 2.7]: the IC50 was 70 nM. As to `CCOc1ccc(OC2CN(c3ccc([C@H](C)NC(=O)C(F)(F)F)cc3)C2)cc1` [Example 3.1, (S)—N-(1-{4-[3-(4-Ethoxy-phenoxy)-azetidin-1-yl]-phenyl}-ethyl)-2,2,2-trifluoro-acetamide], the IC50 came to 60 nM.

Regarding `CCOc1ccc(OC2CN(c3ccc([C@H](C)NC(=O)Nc4ccncn4)cc3)C2)cc1` [Example 4.1, (S)-1-(1-{4-[3-(4-Ethoxy-phenoxy)-azetidin-1-yl]-phenyl}-ethyl)-3-pyrimidin-4-yl-urea], the IC50 is 3410 nM. Turning to `CCNC(=O)N[C@@H](C)c1ccc(N2CC(Oc3ccc(OCC)cc3)C2)cc1` [Example 4.2], the IC50 came to 1540 nM.

Regarding `CCOc1ccc(OC2CN(c3ccc([C@H](C)NC(=O)NC)cc3)C2)cc1` [Example 4.3], the IC50 worked out at 1000 nM. For the molecule `CCOc1ccc(OC2CN(c3ccc([C@H](C)NC(=O)N4CC(O)C4)cc3)C2)cc1` [Example 4.4], the IC50 amounted to 1610 nM. Consider `CCOc1ccc(OC2CN(c3ccc([C@H](C)NC(=O)N(C)CC4CC4)cc3)C2)cc1` [Example 4.5], for which the IC50 turned out to be 5570 nM. In the case of `CCOc1ccc(OC2CN(c3ccc([C@H](C)NC(=O)Nc4cc[nH]n4)cc3)C2)cc1` [Example 4.7], the IC50 was 2310 nM. The result for `CCOc1ccc(OC2CN(c3ccc([C@H](C)NC(=O)N(C)CCOC)cc3)C2)cc1` [Example 4.8] reads 1390 nM; that for `CCOc1ccc(OC2CN(c3ccc([C@H](C)NC(=O)N(C)CC)cc3)C2)cc1` [Example 4.9], 860 nM. In the case of `CCOc1ccc(OC2CN(c3ccc([C@H](C)NC(=O)N(C)C(C)C)cc3)C2)cc1` [Example 4.10] it was 3100 nM; in that of `CCOc1ccc(OC2CN(c3ccc([C@H](C)NC(=O)N4CCC4)cc3)C2)cc1` [Example 4.11], 2370 nM. As to `CCOc1ccc(OC2CN(c3ccc([C@H](C)NC(=O)N(CC#N)C4CC4)cc3)C2)cc1` [Example 4.12], the IC50 amounted to 1610 nM. In the case of `CCOc1ccc(OC2CN(c3ccc([C@H](C)NC(=O)N(C)c4cccnc4)cc3)C2)cc1` [Example 4.13], the IC50 was determined as 370 nM. Turning to `CCOc1ccc(OC2CN(c3ccc([C@H](C)NC(=O)N(C)C4CC4)cc3)C2)cc1` [Example 4.14], the IC50 was determined as 3450 nM. `C[C@H](NC(=O)N(C)C)c1ccc(N2CC(Oc3ccc(OCC4CC4)cc3)C2)cc1` [Example 4.15]: the IC50 worked out at 70 nM. Take `CCNC(=O)N[C@@H](C)c1ccc(N2CC(Oc3ccc(OCC4CC4)cc3)C2)cc1` [Example 4.16]: the IC50 is 280 nM. `C[C@H](NC(=O)N(C)C1CC1)c1ccc(N2CC(Oc3ccc(OCC4CC4)cc3)C2)cc1` [Example 4.17]: the IC50 came to 1130 nM. On to `CCOc1ccc(OC2CN(c3ccc([C@H](C)NC4=CC(=O)OC4)cc3)C2)cc1` [Example 5.1, (S)-4-(1-{4-[3-(4-Ethoxy-phenoxy)-azetidin-1-yl]-phenyl}-ethylamino)-5H-furan-2-one], for which the IC50 amounted to 340 nM.

On to `CC(=O)N[C@@H](C)c1ccc(N2CC(Oc3ccc(C(C)(C)C)cc3)C2)cc1` [Example 6.1, (S)—N-(1-{4-[3-(4-tert-Butyl-phenoxy)-azetidin-1-yl]-phenyl}-ethyl)-acetamide], for which the IC50 amounted to 260 nM. Consider `CCOc1ccc(OC2CN(c3ccc([C@H](C)NC(C)=O)cc3)C2)c(F)c1` [Example 7.1, (S)—N-(1-{4-[3-(4-Ethoxy-2-fluoro-phenoxy)-azetidin-1-yl]-phenyl}-ethyl)-acetamide], for which the IC50 turned out to be 120 nM.

What is called IC50 is the point on the concentration scale where inhibition reaches its midpoint.
